Reference: patent US20230304097A1, “PREDICTING CANCER RELAPSE AND TREATMENT OF CANCER DISEASES” (priority 2020, published 2023)
“Also recorded” adds a separate entry of the source.

Tests used:
GTS cells = assay: Drug treatment and proliferation assay (Resazurin/Alamar blue), recurrent tumor cells; type: cell-based, mouse
Method: Tumor cells (GTML, GTS and preGTS) were isolated as previously described from tumor bearing mice (Cancer Cell 2012, 21: 601-613) and cultured as neurospheres in serum-free conditions with Neurobasal (NB) media, additional B27 supplement, 100 units Penicillin and 0.1 mg/ml Streptomycin, 2 mM L-glutamine, 1:500 Antibiotic-Antimycotic, 20 ng/ml EGF and 20 ng/ml FGF-2. Human MB002 primary cell culture was obtained from Dr. Yoon Jae-Cho and cultured in serum-free conditions, 1:1 of Neurobasal Media (-vitamin A) and DMEM/F12 with Sodium Pyruvate, NEAA, HEPES, GlutaMAX, 100 units Penicillin and 0.1 mg/ml Streptomycin, B27 supplement, 20 ng/ml EGF and 20 ng/ml FGF-2, 1X LIF and 1X Heparin as previously described Clin Cancer Res 2014, 20: 912-925. Stable doxycycline-inducible SOX9wt and SOX9CPD mutant cell lines were generated as described (EMBO J 2016, 35: 2192-2212), lentiviruses were first packed in HEK293T cells by the specified pTRIPZ lentivector with the packaging plasmids, psPAX2 and pMD2.G. Supernatants containing viral particles (48 - 96 hours post transfection) were used to infect the target cells in the presence of freshly added hexadimethrine bromide ([…]). Seventy-two hours post-transfection, the cells were selected and maintained in appropriate culture medium containing puromycin (0.125 - 0.5 µg/mL).
To assess cell proliferation, 10 000 cells were plated in triplicates in 96-well plate. Proliferation was measured every 24 h for five days using Resazurin colorimetric assay. […] ThioTEPA was dissolved in DMSO and added similarly to a final concentration of 10-100 µM. Doxorubicin was dissolved in H2O and added to a final concentration of 100-120 nM. Spheres from pre-GT20 cells were treated with Cisplatin at a final concentration of 10 µM. Number of SOX9-positive cells per spheres was counted in 10 spheres in treated (Cisplatin) and untreated (DMSO) conditions. Statistical significance was calculated using a unpaired non-parametric Mann-Whitney test.

GTML cells = assay: Drug treatment and proliferation assay (Resazurin/Alamar blue), primary tumor cells; type: cell-based, mouse
Method: Tumor cells (GTML, GTS and preGTS) were isolated as previously described from tumor bearing mice (Cancer Cell 2012, 21: 601-613) and cultured as neurospheres in serum-free conditions with Neurobasal (NB) media, additional B27 supplement, 100 units Penicillin and 0.1 mg/ml Streptomycin, 2 mM L-glutamine, 1:500 Antibiotic-Antimycotic, 20 ng/ml EGF and 20 ng/ml FGF-2. Human MB002 primary cell culture was obtained from Dr. Yoon Jae-Cho and cultured in serum-free conditions, 1:1 of Neurobasal Media (-vitamin A) and DMEM/F12 with Sodium Pyruvate, NEAA, HEPES, GlutaMAX, 100 units Penicillin and 0.1 mg/ml Streptomycin, B27 supplement, 20 ng/ml EGF and 20 ng/ml FGF-2, 1X LIF and 1X Heparin as previously described Clin Cancer Res 2014, 20: 912-925. […]
To assess cell proliferation, 10 000 cells were plated in triplicates in 96-well plate. Proliferation was measured every 24 h for five days using Resazurin colorimetric assay. […] Number of SOX9-positive cells per spheres was counted in 10 spheres in treated (Cisplatin) and untreated (DMSO) conditions. Statistical significance was calculated using a unpaired non-parametric Mann-Whitney test.

[1] = in children and in adults; cited from earlier work
pre-GT20 cells = assay: Cisplatin treatment of tumor sphere cultures, SOX9 staining and cell counts; type: cell-based, mouse; conditions: pre-GTS tumor spheres, 10 µM, 72 h in culture
Method: Brains were fixed in 4% PFA and embedded in paraffin block. preGT20 sphere cultures were fixed in 4 % PFA for a minimum of 12 hours at 4° C. and then embedded in HistoGel followed by paraffin embedding. 6-7 µm sections of paraffin-embedded tissue were used for all staining. The complete protocol for the IHC was described previously (Genes & development 2010, 24: 1059-1072).
To assess cell proliferation, 10 000 cells were plated in triplicates in 96-well plate. Proliferation was measured every 24 h for five days using Resazurin colorimetric assay. The MGMT inhibitor Lomeguatrib was dissolved in DMSO and added to cells 24 h post cell plating to a final concentration of 20 µM. ThioTEPA was dissolved in DMSO and added similarly to a final concentration of 10-100 µM. Doxorubicin was dissolved in H2O and added to a final concentration of 100-120 nM. Spheres from pre-GT20 cells were treated with Cisplatin at a final concentration of 10 µM. Number of SOX9-positive cells per spheres was counted in 10 spheres in treated (Cisplatin) and untreated (DMSO) conditions. Statistical significance was calculated using a unpaired non-parametric Mann-Whitney test.

GTML-pSOX9-GFP cells = assay: FACS quantification of GFP (SOX9)-positive cells after cisplatin treatment; type: cell-based, mouse; conditions: 24 h treatment
Method: Tumor burdened GTML;SOX9-eGFP mice were sacrificed and tumors dissociated, cells cultured as we described above. Cells were harvested, accutased and filtered with 30 µm cell strainer, then sorted for GFP-positive (SOX9) cells (488_FITC-A) and GFP-negative cell population. For cisplatin treatment experiment, cells were treated with cisplatin 24 h before cell sorting. The BD FACSMelody was used for sorting and quantifying in this experiment. MB002-pSOX9-GFP cells were dissociated using accutase and sorted for GFP expression (488_FITC-A). The BD FACSarialll was used for this experiment and it was analyzed using BD FACSDiVa version 8.0.

[2] = system: GTML2 and GTML3 cerebellar allografts; assay: Survival of Nude mice allografted with GTML cell lines after dox diet (minimal residual disease); type: in vivo, mouse; conditions: 7 days of dox treatment
Method: Injections of tumor cells into mouse brains were performed as thoroughly described elsewhere (Cancer Cell 2016, 29: 311-323; Cancer Cell 2012, 21: 601-613) and as follows. For allograft and in vivo transplantation studies, adult Nude mice were anesthetized and cerebellar allografts generated by injection of 100,000 cells into the cerebellum. Mice were monitored until phenotypic presentation of a brain tumor, at which point they were euthanized. At sacrifice, whole brains were excised and biopsies taken for experimental procedures. PDX models used included BT084 (metastatic SHH MB established in Dr. Till Milde’s lab, Heidelberg, Germany), Med-211FH, Med-411FH (metastatic Group 3 MBs established in Dr. Jim Olson’s lab, Seattle, USA) and ICb-1572MB (metastatic Group 3 MB established in Dr. Xiaonan Li’s lab, Houston, USA) all obtained from Dr. Robert Wechsler-Reya’s lab and used as described elsewhere (Cancer Cell 2016, 29: 311-323). Orthotopic PDX growth was studied in brain and spinal cord in NSG mice that were maintained in the animal facilities at Sanford Burnham Prebys Medical Discovery Institute (SBP) and at the Sanford Consortium for Regenerative Medicine. […]
All animal experiments were conducted once. Animal survival was graphically shown as a Kaplan Meier curve, made and assessed using GraphPad Prism 7 software. The p-value for survival curves is calculated using a LogRank test.

## COc1cc2ncnc(Nc3ccc(F)c(Cl)c3)c2cc1OCCCN1CCOCC1 [Gefitinib]
GTS cells; data not shown
  specificity for targeting forebrain GTS cells: not specific for targeting forebrain GTS cells

## Nc1nc(OCc2cc(Br)cs2)c2[nH]cnc2n1 [Lomeguatrib]
GTS cells; 10 µM Lomeguatrib added to ThioTEPA (10, 100 µM), 72 h
  proliferation of GTS cells, combination with ThioTEPA: decreased proliferation of GTS tumor cells even further; also recorded: significantly decreases proliferation
GTS cells; 20 µM, 24, 48 and 72 h, GT20 and GT21 cell lines
  proliferation of GTS cells: significantly decreased proliferation
GTML cells; 20 µM, 24, 48 and 72 h, GTML3 and GTML13 cell lines
  proliferation of GTML cells: did not show any efficacy

## CC(C)[C@H](N)C(=O)OCC(CO)OCn1cnc2c(=O)nc(N)[nH]c21 (stereo partly drawn) [ValGCV, valganciclovir]
[1]
  blood brain barrier penetration: penetrates the BBB well
  concentration in the cerebrospinal fluid (CSF): high concentrations

## N.N.[Cl][Pt][Cl] [cisplatin, Cisplatin]
pre-GT20 cells
  cell survival and apoptotic cell death: decreased cell survival and massive apoptotic cell death
pre-GT20 cells; vs DMSO
  number of SOX9-positive cells surviving the treatment: significant upregulation and increase in the number of SOX9-positive cells
GTML-pSOX9-GFP cells; FACS of GFP-positive cells
  number of SOX9-positive cells compared to DMSO control: increases the number of SOX9-positive cells
GTML-pSOX9-GFP cells; GFP-positive cells by FACS, increase from 2.4% (DMSO control)
  SOX9-positive cells: 8.6%

## C[C@H]1c2cccc(O)c2C(=O)C2=C(O)[C@]3(O)C(=O)C(C(N)=O)=C(O)[C@@H](N(C)C)[C@@H]3[C@@H](O)[C@@H]21 [dox, doxycycline hyclate]
[2]
  overall survival, GTML2 allograft: 16.5 weeks
  overall survival, GTML3 allograft: 9 weeks

## COc1cccc2c1C(=O)c1c(O)c3c(c(O)c1C2=O)C[C@@](O)(C(=O)CO)C[C@@H]3O[C@H]1C[C@H](N)[C@H](O)[C@H](C)O1 [doxorubicin]
GTS cells; 200 nM, 72 h
  viable fGTS (forebrain recurrence) cells: completely depleted
  viable hGTS (hindbrain recurrence) cells: nearly half of the cells were still viable
GTML cells; 200 nM, 72 h
  viable GTML cells: nearly half of the cells were still viable
